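Cells were grown in 96-well plates and exposed to each compound for 48 hours at five concentrations; endpoints were interpolated linearly between bracketing concentrations, or set to the highest concentration if not reached. At the GI50, growth is halved. TGI denotes the concentration required for complete inhibition of growth.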 Bounds are passed on as bounds.

Among the test systems are CCRF-CEM leukemia; HCT-116 colon; HT29 colon; K-562 leukemia; KM12 colon; NCI-H522 lung; OVCAR-4 ovarian; OVCAR-5 ovarian; OVCAR-8 ovarian; SNB-75 CNS.
Experiment in all cases: NCI tumour cell line growth inhibition, 48 h

`CC(=O)O[C@H]1C(=O)[C@@]2(C)[C@H]([C@H](OC(=O)c3ccccc3)[C@@]3(O)C[C@H](O)C(C)=C1C3(C)C)[C@]1(OC(C)=O)CO[C@@H]1C[C@@H]2O`: the TGI in the experiment on CCRF-CEM leukemia was over 100 µM; in the experiment on HCT-116 colon, over 100 µM; in the experiment with HT29 colon, 86.6 µM; in the experiment with K-562 leukemia, over 100 µM; in the experiment on KM12 colon, over 100 µM; in the experiment on NCI-H522 lung, 44.1 µM. Besides, the TGI in the experiment on OVCAR-4 ovarian, with OVCAR-5 ovarian, with OVCAR-8 ovarian and with SNB-75 CNS was over 100 µM in each case.

For `CN1CCN(Cc2ccc(NC(=O)c3cncc(C#Cc4cnn5ccccc45)c3)cc2C(F)(F)F)CC1`, the GI50 was 0.202 µM in the experiment with CCRF-CEM leukemia; 0.294 µM with HCT-116 colon; 0.811 µM in the experiment on HT29 colon; 0.005 µM in the experiment with K-562 leukemia; 0.016 µM in the experiment with KM12 colon; 0.838 µM in the experiment on NCI-H522 lung. The GI50 is 0.445 µM in the experiment with OVCAR-4 ovarian, 1.12 µM with OVCAR-5 ovarian, 1.22 µM in the experiment with OVCAR-8 ovarian and 0.893 µM in the experiment on SNB-75 CNS. For the same molecule, the TGI in the experiment on CCRF-CEM leukemia is 1.67 µM; in the experiment on HCT-116 colon it was 1.47 µM; in the experiment on HT29 colon it was 4.89 µM; in the experiment on K-562 leukemia, 3.16 µM; with KM12 colon, 1.14 µM; with NCI-H522 lung, 2.27 µM. Moreover, the TGI came to 2.95 µM in the experiment with OVCAR-4 ovarian, 5.09 µM in the experiment with OVCAR-5 ovarian, 4.68 µM in the experiment with OVCAR-8 ovarian and 1.81 µM with SNB-75 CNS.

As to `CC[C@]12C=CCN3CC[C@@]4(c5ccc(OC)cc5N(C)[C@H]4[C@@](O)(C(=O)OC)[C@@H]1OC(=O)CCC(=O)N[C@H](Cc1c[nH]c4ccccc14)C(=O)OC)[C@@H]32`, the GI50 in the experiment with CCRF-CEM leukemia is 3.34 µM; in the experiment on HCT-116 colon, 3.02 µM; in the experiment with HT29 colon it was 3.11 µM; in the experiment with K-562 leukemia, 3.56 µM; in the experiment on KM12 colon it was 10.1 µM; in the experiment on NCI-H522 lung it was 14.4 µM. Besides, the GI50 in the experiment with OVCAR-4 ovarian was 6.5 µM; with OVCAR-5 ovarian, 14.1 µM; in the experiment with OVCAR-8 ovarian it was 7.78 µM; in the experiment on SNB-75 CNS it was 2.23 µM. Also, the TGI with CCRF-CEM leukemia was over 100 µM; with HCT-116 colon, over 100 µM; in the experiment with HT29 colon, 14.4 µM; with K-562 leukemia, over 100 µM; with KM12 colon it was 36 µM; with NCI-H522 lung, 34.9 µM. In addition, the TGI in the experiment on OVCAR-4 ovarian was determined as 28.4 µM; in the experiment with OVCAR-5 ovarian it was 45 µM; in the experiment with OVCAR-8 ovarian it was 35 µM; in the experiment on SNB-75 CNS, 14.1 µM.

Consider `CC(=N)N(C)O`, for which the TGI is 53.1 µM in the experiment on CCRF-CEM leukemia; over 100 µM with HCT-116 colon; over 100 µM with HT29 colon; over 100 µM in the experiment on K-562 leukemia; over 100 µM in the experiment with KM12 colon; over 100 µM in the experiment with NCI-H522 lung. In addition, the TGI in the experiment with OVCAR-4 ovarian, in the experiment on OVCAR-5 ovarian, with OVCAR-8 ovarian and in the experiment with SNB-75 CNS was over 100 µM each time.

In the case of `CCOC(=O)c1cc(-c2ccc(OC)c(OC)c2)[nH]c1N/N=C/c1c(Cl)cccc1Cl`, the GI50 with CCRF-CEM leukemia was 2.22 µM; in the experiment with HCT-116 colon, 1.39 µM; in the experiment on HT29 colon it was 0.913 µM; in the experiment on K-562 leukemia it was 1.69 µM; in the experiment on KM12 colon, 0.636 µM; with NCI-H522 lung, 2.27 µM. The GI50 is 4.46 µM in the experiment on OVCAR-4 ovarian, 4.56 µM with OVCAR-5 ovarian, 3.69 µM in the experiment on OVCAR-8 ovarian and 1.85 µM with SNB-75 CNS. The TGI in the experiment on CCRF-CEM leukemia was over 100 µM; in the experiment on HCT-116 colon, 5.44 µM; in the experiment with HT29 colon it was 6.28 µM; in the experiment with K-562 leukemia, over 100 µM; in the experiment on KM12 colon, 9.98 µM; in the experiment with NCI-H522 lung it was 30 µM. Further, the TGI with OVCAR-4 ovarian is over 62.7 µM; in the experiment on OVCAR-5 ovarian, 20.3 µM; in the experiment on OVCAR-8 ovarian, over 100 µM; in the experiment on SNB-75 CNS it was 5.94 µM.

As for `CCC[CH2][Sn]([CH2]CCC)([O]C(=O)c1cc(F)cc(F)c1)[O][Sn]([CH2]CCC)([CH2]CCC)[O]C(=O)c1cc(F)cc(F)c1`, the GI50 with CCRF-CEM leukemia was 0.101 µM; in the experiment on HCT-116 colon it was 1.35 µM; in the experiment on HT29 colon, 1.91 µM; with K-562 leukemia it was 0.256 µM; with KM12 colon, 3.58 µM; in the experiment on NCI-H522 lung it was 0.0538 µM. Moreover, the GI50 with OVCAR-4 ovarian is 2.04 µM; in the experiment on OVCAR-5 ovarian, 1.92 µM; with OVCAR-8 ovarian, 1.28 µM; in the experiment with SNB-75 CNS, 1.26 µM. The TGI in the experiment with CCRF-CEM leukemia came out at 0.886 µM; in the experiment on HCT-116 colon it was 2.63 µM; in the experiment with HT29 colon, 4.09 µM; in the experiment with K-562 leukemia, 1.12 µM; in the experiment with KM12 colon, 12.4 µM; with NCI-H522 lung it was 0.185 µM. Further, the TGI in the experiment on OVCAR-4 ovarian is 3.51 µM; with OVCAR-5 ovarian it was 3.43 µM; with OVCAR-8 ovarian, 2.54 µM; with SNB-75 CNS, 2.71 µM.

As to `CC(=O)ON(C(C)=O)C1C(COC(c2ccccc2)(c2ccccc2)c2ccccc2)OC2OC3(CCCC3)OC21` (stereo not given), the TGI in the experiment on CCRF-CEM leukemia is over 100 µM; in the experiment on HCT-116 colon, over 100 µM; in the experiment with HT29 colon, over 100 µM; with K-562 leukemia, over 100 µM; in the experiment on KM12 colon, over 100 µM; with NCI-H522 lung, 6.26 µM. In addition, the TGI with OVCAR-4 ovarian, in the experiment on OVCAR-5 ovarian, in the experiment on OVCAR-8 ovarian and with SNB-75 CNS was over 100 µM each time.
